Patent US20230146455A1, “TREATMENT OF INFLAMMATORY DISEASES WITH PEPTIDES AND PHARMACEUTICAL COMPOSITIONS” (Yuyu Pharma, Inc., priority 2020, published 2023)
Several values for one entry are separate records, joined by “and”; a condition that tells them apart may be missing. Equal values may be shown once. Where a SMILES comes first, the peptide text is derived from it. [ ]: non-standard residue; d: D form. Hyp = O=C(O)[C@@H]1C[C@@H](O)CN1

How the values were obtained:
CCL20/MIP-3 alpha = test: Example 9 Luminex, LPS hPBMCs: CCL20/MIP-3 alpha; type: cell-based, human
Method: (§1) Treatment Human PBMCs were pretreated with YY-101, YDE-011 and YDE-043 or reference compound; Xiidra® at various concentration (ranging from 1 nM to 100 uM) for 2 h before stimulation. An equal volume of 0.5% DMSO was used as a vehicle control. Then, the cells were treated with LPS at 5 ug/ml. The supernatants from treated cells were harvested at 24 h and placed in a 96 well for Luminex cytokine & chemokine profiling using a Luminex 200 multiplex assay (Luminex; R&D system, USA).
(§2) The main study arm with triplicate wells per group in a 24-well plate: • 1. Blank • 2. PBMC: 0.5% DMSO • 3. PBMC+LPS (5 ug/ml) • 4. PBMC+YY-101 100 uM • 5. PBMC+YY-101 10 uM • 6. PBMC+YY-101 1 uM • 7. PBMC+YY-101 0.1 uM • 8. PBMC+YY-101 0.01 uM • 9. PBMC+LPS (5 ug/ml)+Xiidra®100 uM • 10. PBMC+LPS (5 ug/ml)+Xiidra® 10 uM • 11. PBMC+LPS (5 ug/ml)+Xiidra® 1 uM • 12. PBMC+LPS (5 ug/ml)+Xiidra®0.1 uM • 13. PBMC+LPS (5 ug/ml)+Xiidra®0.01 uM • 14. PBMC+LPS (5 ug/ml)+Xiidra®0.001 uM • 15. PBMC+LPS (5 ug/ml)+YY-101 100 uM • 16. PBMC+LPS (5 ug/ml)+YY-101 10 uM • 17. PBMC+LPS (5 ug/ml)+YY-101 1 uM • 18. PBMC+LPS (5 ug/ml)+YY-101 0.1 uM • 19. PBMC+LPS (5 ug/ml)+YY-101 0.01 uM • 20. PBMC+LPS (5 ug/ml)+YY-101 0.001 uM • 21. PBMC+LPS (5 ug/ml)+YDE-011 100 uM • 22. PBMC+LPS (5 ug/ml)+YDE-011 10 uM • 23. PBMC+LPS (5 ug/ml)+YDE-011 1 uM • 24. PBMC+LPS (5 ug/ml)+YDE-011 0.1 uM • 25. PBMC+LPS (5 ug/ml)+YDE-011 0.01 uM • 26. PBMC+LPS (5 ug/ml)+YDE-011 0.001 uM • 27. PBMC+LPS (5 ug/ml)+YDE-043 100 uM • 28. PBMC+LPS (5 ug/ml)+YDE-043 10 uM • 29. PBMC+LPS (5 ug/ml)+YDE-043 1 uM • 30. PBMC+LPS (5 ug/ml)+YDE-043 0.1 uM • 31. PBMC+LPS (5 ug/ml)+YDE-043 0.01 uM • 32. PBMC+LPS (5 ug/ml)+YDE-043 0.001 uM
(§3) Multiplex assay was used to measure 30 cytokines and chemokines. The 1:2, 1:10 and 1:200 diluted cell supernatant and serial dilution of the standard were dispensed into a 96 well plate at 50 ul/well. Then, the pre-mixed cocktail of antibody-coated magnetic beads was dispensed at 50 ul/well and incubated at room temperature for 2 h in a horizontal orbital microplate shaker at 800±500 rpm. The beads were washed using a magnetic device to prevent loss. The biotin-antibody was dispensed in 50 ul of each well and incubated at room temperature for 1 h in a shaker at 800±500 rpm. After washing, streptavidin-PE was added at 50 ul/well and incubated at room temperature for 30 min in a shaker under the same conditions. Finally, after washing, wash buffer (100 ul/well) was added to the plate and incubated in a shaker for 2 min. The Luminex™ 200 setting were set according to the manufacturer's protocol. The data was calculated with a standard five-parameter logistic nonlinear regression analysis of the data (xPonent software 4.2, USA). The levels of cytokine/chemokine are normalized to the live cell counts (1×10^5 cells/mL) and presented as concentrations per mL (pg/mL or ng/mL).

GM-CSF = test: Example 9 Luminex, LPS hPBMCs: GM-CSF; type: cell-based, human
Method: as §1, §2, §3

[1] = PBMC + LPS(5 ug/ml) + test article 0.001 uM, Mean
[2] = PBMC + LPS(5 ug/ml) + test article 0.001 uM, individual replicate
[3] = PBMC + LPS(5 ug/ml) + test article 0.01 uM, Mean
[4] = PBMC + LPS(5 ug/ml) + test article 0.01 uM, individual replicate
[5] = PBMC + LPS(5 ug/ml) + test article 0.1 uM, Mean
[6] = PBMC + LPS(5 ug/ml) + test article 0.1 uM, individual replicate
[7] = PBMC + LPS(5 ug/ml) + test article 1 uM, Mean
[8] = PBMC + LPS(5 ug/ml) + test article 1 uM, individual replicate
[9] = PBMC + LPS(5 ug/ml) + test article 10 uM, Mean
[10] = PBMC + LPS(5 ug/ml) + test article 10 uM, individual replicate
[11] = PBMC + LPS(5 ug/ml) + test article 100 uM, Mean
[12] = PBMC + LPS(5 ug/ml) + test article 100 uM, individual replicate
[13] = PBMC + LPS(5 ug/ml) + test article 0.001 uM, single replicates
[14] = PBMC + LPS(5 ug/ml) + test article 0.01 uM, single replicates
[15] = PBMC + LPS(5 ug/ml) + test article 0.1 uM, single replicates
[16] = PBMC + LPS(5 ug/ml) + test article 1 uM, single replicates
[17] = PBMC + LPS(5 ug/ml) + test article 10 uM, single replicates
[18] = PBMC + LPS(5 ug/ml) + test article 100 uM, single replicates

## CC(C)C[C@H](NC(=O)[C@H](CCC(N)=O)NC(=O)CNC(=O)[C@@H]1C[C@@H](O)CN1)C(=O)NCC(=O)O [YDE-043] (H-[Hyp]GQLG-OH; N-terminus and C-terminus assumed)
CCL20/MIP-3 alpha; [1]
  Concentration, CCL20/MIP-3 alpha: 222.1 pg/mL
  MFI, CCL20/MIP-3 alpha: 234.3
  conc/live cell, CCL20/MIP-3 alpha: 45.5 pg/10^5
CCL20/MIP-3 alpha; [2]
  Concentration, CCL20/MIP-3 alpha: 237.5 pg/mL and 214.3 pg/mL and 214.7 pg/mL
  MFI, CCL20/MIP-3 alpha: 252.5 and 225.0 and 225.5
  conc/live cell, CCL20/MIP-3 alpha: 54.0 pg/10^5 and 35.7 pg/10^5 and 46.7 pg/10^5
CCL20/MIP-3 alpha; [3]
  Concentration, CCL20/MIP-3 alpha: 257.4 pg/mL
  MFI, CCL20/MIP-3 alpha: 276.3
  conc/live cell, CCL20/MIP-3 alpha: 49.7 pg/10^5
CCL20/MIP-3 alpha; [4]
  Concentration, CCL20/MIP-3 alpha: 272.1 pg/mL and 235.8 pg/mL and 264.2 pg/mL
  MFI, CCL20/MIP-3 alpha: 294.0 and 250.5 and 284.5
  conc/live cell, CCL20/MIP-3 alpha: 60.5 pg/10^5 and 35.7 pg/10^5 and 52.8 pg/10^5
CCL20/MIP-3 alpha; [5]
  Concentration, CCL20/MIP-3 alpha: 269.5 pg/mL
  MFI, CCL20/MIP-3 alpha: 290.8
  conc/live cell, CCL20/MIP-3 alpha: 50.0 pg/10^5
CCL20/MIP-3 alpha; [6]
  Concentration, CCL20/MIP-3 alpha: 269.6 pg/mL and 266.7 pg/mL and 272.1 pg/mL
  MFI, CCL20/MIP-3 alpha: 291.0 and 287.5 and 294.0
  conc/live cell, CCL20/MIP-3 alpha: 53.9 pg/10^5 and 47.6 pg/10^5 and 48.6 pg/10^5
CCL20/MIP-3 alpha; [7]
  Concentration, CCL20/MIP-3 alpha: 257.7 pg/mL
  MFI, CCL20/MIP-3 alpha: 276.7
  conc/live cell, CCL20/MIP-3 alpha: 48.8 pg/10^5
CCL20/MIP-3 alpha; [8]
  Concentration, CCL20/MIP-3 alpha: 267.1 pg/mL and 251.7 pg/mL and 254.2 pg/mL
  MFI, CCL20/MIP-3 alpha: 288.0 and 269.5 and 272.5
  conc/live cell, CCL20/MIP-3 alpha: 46.1 pg/10^5 and 52.4 pg/10^5 and 48.0 pg/10^5
CCL20/MIP-3 alpha; [9]
  Concentration, CCL20/MIP-3 alpha: 267.8 pg/mL
  MFI, CCL20/MIP-3 alpha: 288.8
  conc/live cell, CCL20/MIP-3 alpha: 49.6 pg/10^5
CCL20/MIP-3 alpha; [10]
  Concentration, CCL20/MIP-3 alpha: 260.1 pg/mL and 260.9 pg/mL and 282.4 pg/mL
  MFI, CCL20/MIP-3 alpha: 279.5 and 280.5 and 306.5
  conc/live cell, CCL20/MIP-3 alpha: 50.0 pg/10^5 and 48.3 pg/10^5 and 50.4 pg/10^5
CCL20/MIP-3 alpha; [11]
  Concentration, CCL20/MIP-3 alpha: 358.3 pg/mL
  MFI, CCL20/MIP-3 alpha: 399.5
  conc/live cell, CCL20/MIP-3 alpha: 56.9 pg/10^5
CCL20/MIP-3 alpha; [12]
  Concentration, CCL20/MIP-3 alpha: 381.7 pg/mL and 334.8 pg/mL
  MFI, CCL20/MIP-3 alpha: 428.5 and 370.5
  conc/live cell, CCL20/MIP-3 alpha: 61.6 pg/10^5 and 52.3 pg/10^5
GM-CSF; [1]
  GM-CSF Concentration: 96.8 pg/mL
  GM-CSF conc/live cell: 19.6 pg/10^5
GM-CSF; [13]
  GM-CSF Concentration: 85.3 pg/mL and 103.8 pg/mL and 101.3 pg/mL
  GM-CSF conc/live cell: 19.4 pg/10^5 and 17.3 pg/10^5 and 22.0 pg/10^5
GM-CSF; [3]
  GM-CSF Concentration: 92.9 pg/mL
  GM-CSF conc/live cell: 17.9 pg/10^5
GM-CSF; [14]
  GM-CSF Concentration: 94.6 pg/mL and 86.1 pg/mL and 97.9 pg/mL
  GM-CSF conc/live cell: 21.0 pg/10^5 and 13.1 pg/10^5 and 19.6 pg/10^5
GM-CSF; [5]
  GM-CSF Concentration: 92.5 pg/mL
  GM-CSF conc/live cell: 17.1 pg/10^5
GM-CSF; [15]
  GM-CSF Concentration: 87.8 pg/mL and 91.2 pg/mL and 98.4 pg/mL
  GM-CSF conc/live cell: 17.6 pg/10^5 (2×) and 16.3 pg/10^5
GM-CSF; [7]
  GM-CSF Concentration: 91.6 pg/mL
  GM-CSF conc/live cell: 17.4 pg/10^5
GM-CSF; [16]
  GM-CSF Concentration: 89.5 pg/mL and 92.1 pg/mL and 93.3 pg/mL
  GM-CSF conc/live cell: 15.4 pg/10^5 and 19.2 pg/10^5 and 17.6 pg/10^5
GM-CSF; [9]
  GM-CSF Concentration: 101.0 pg/mL
  GM-CSF conc/live cell: 18.7 pg/10^5
GM-CSF; [17]
  GM-CSF Concentration: 102.1 pg/mL and 96.3 pg/mL and 104.6 pg/mL
  GM-CSF conc/live cell: 19.6 pg/10^5 and 17.8 pg/10^5 and 18.7 pg/10^5
GM-CSF; [11]
  GM-CSF Concentration: 137.2 pg/mL
  GM-CSF conc/live cell: 21.8 pg/10^5
GM-CSF; [18]
  GM-CSF Concentration: 140.1 pg/mL and 134.4 pg/mL
  GM-CSF conc/live cell: 22.6 pg/10^5 and 21.0 pg/10^5
